# Experimental data reported in patent US20130042333A1, “MARKERS FOR CANCER PROGNOSIS AND THERAPY AND METHODS OF USE” (priority 2011, published 2013).
# Legend:
# [1] = system: SC61 small-cell lung cancer xenograft; assay: Tumor regression-regrowth assay, SC61 xenograft; format: in vivo, human tumor in immunodeficient mice; settings: x1 cycle
# Source text: (§1) Tumor xenografts were generated by direct subcutaneous grafting into immunodeficient mice of human tumor surgical samples with informed written consent of the patients and maintained by serial transplantation. […] They are thus clinically relevant tumor models, as opposed to xenografts produced from tumor cell lines that have been obtained by in vitro culture and often passaged for many years (Fiebig, H. H. et al. Eur J Cancer 40, 802-820, 2004; Marangoni E., Vincent-Salomon A., Auger N. et al. Clin Cancer Res. 2007 Jul. 1; 13:3989-98).
# Chemotherapeutic drugs were administered by intraperitoneal route according to the following doses and schedules: adriamycin, 2 mg/kg, q3wk (Doxorubicin®, Teva Pharmaceuticals, France) and Cyclophosphamide, 100 mg/kg, q3wk (Endoxan®, Baxter, France). Irinotecan (Campto®, Pfizer Holding France), 50 mg/kg, q4dx4. Etoposide 12 mg/kg, qdx3. Ifosfamide 90 mg/kg, qdx3. bPARP inhibitor (AZD2281, Sequoia Research Products, UK) at 50 mg/kg (ip; qdx14). A second treatment cycle was performed with PARP inhibitor at 50 mg/kg (ip qdx5) during the nodule phase. […] Tumor volume was evaluated by measuring two perpendicular diameters of the tumor, with a calliper, biweekly during the treatment period and once a week during the follow-up period. […] Mice were ethically sacrificed when the tumor volume reached 2000 mm3 Individual tumor growth delays (TGD) is calculated as the time in days required for individual tumors to reach 3- to 5-fold the initial median tumor volume. The tumor growth delay index (TGDI) is calculated as the median growth delay in the treated group divided by the median growth delay in the control group. The percentage ratio between the mean tumor volume of a treated group (T) and the mean tumor volume of the control group (C) is calculated. […]
# [2] = system: TC301 colorectal cancer xenograft; assay: Tumor regression-regrowth assay, TC301 xenograft; format: in vivo, human tumor in immunodeficient mice; settings: I 40 mg/kg, x1 cycle
# Source text: as §1
# Chemotherapeutic drugs were administered by intraperitoneal route according to the following doses and schedules: adriamycin, 2 mg/kg, q3wk (Doxorubicin®, Teva Pharmaceuticals, France) and Cyclophosphamide, 100 mg/kg, q3wk (Endoxan®, Baxter, France). […] Etoposide 12 mg/kg, qdx3. Ifosfamide 90 mg/kg, qdx3. bPARP inhibitor (AZD2281, Sequoia Research Products, UK) at 50 mg/kg (ip; qdx14). A second treatment cycle was performed with PARP inhibitor at 50 mg/kg (ip qdx5) during the nodule phase. Other pharmacological inhibitors are tested and administrated at the nodule phase: JAK1/2 Inhibitor (CP-690550) at 15 mg/kg (po qdx14), Epigallocatechin gallate (ECGC) (Sequoia Research Products, UK) at 30 mg/kg (ip qdx28), HDAC inhibitor (Trichostatine A), Retinoic acid at 50 mg/kg (ip qdx28) (Sigma-Aldrich, France). Breast tumor xenograft models were transplanted into 5-week old female Swiss nude mice, as described above, one tumor being transplanted into 5-10 recipients. When tumors reached a volume of 60-250 mm3, mice were individually identified and randomly assigned to the control or treated groups (12 to 20 mice per group). Tumor volume was evaluated by measuring two perpendicular diameters of the tumor, with a calliper, biweekly during the treatment period and once a week during the follow-up period. The formula TV (mm3)=[length (mm)×width (mm)2]/2 was used, where the length and the width were the longest and the shortest diameters of the tumor, respectively. All animals were weighted biweekly during the treatment period and the follow-up period. Mice were ethically sacrificed when the tumor volume reached 2000 mm3 Individual tumor growth delays (TGD) is calculated as the time in days required for individual tumors to reach 3- to 5-fold the initial median tumor volume. The tumor growth delay index (TGDI) is calculated as the median growth delay in the treated group divided by the median growth delay in the control group. The percentage ratio between the mean tumor volume of a treated group (T) and the mean tumor volume of the control group (C) is calculated. […]
# [3] = system: 21 genes implicated in IFN/Stat pathway; assay: Real-time quantitative RT-PCR of the 21-gene IFN/Stat signature in tumor xenografts after chemotherapy; format: in vivo, human tumor in immunodeficient mice; settings: colorectal tumor xenograft (TC301)
# Description: Samples were allocated for histology, microdissection and RNA analyses.
# Total RNA amount was measured using the Nanodrop (ND1000, ThermoFisher) and RNA quality was assessed with the Agilent 2100 Bioanalyzer onto RNA NanoChip (Agilent Technology, Massy, France). Three samples from each condition were pooled. Two μg of total RNA were reverse-transcribed with the First strand cDNA synthesis kit (Roche Applied Science, Switzerland) according to manufacturer's instructions. For the priming method, a combination of ¾ random hexamer primers and ¼ anchored-oligo(dT)18 primers was used to avoid 3′-prime bias in cDNAs. qPCR analyses of gene transcripts was done with 5 ng of RNA for each reaction. Three housekeeping genes were used as references for relative quantification of target genes expression. […]
# Validation of the microarray gene and microRNA expression data was performed by qPCR using primers specific for human sequences (eg. non-cross-reactive with murine sequences). The effect of chemotherapy on the activation of 21 genes implicated in IFN/Stat pathway (IFIT1, IFITM1, IRF9, IFI6, IFI44, IFI44L, OAS1, OAS2, LAMP3, MX1, PARP9, PARP12, SAMD9, SAMD9L, BST2, DDX60, CLDN1, STAT1, STAT2, UBE2L6, ZNFX1) and two miRNA (miR-142-3p and miR150) was analyzed in responder versus non-responder tumor models. […]
# [4] = system: HBCx-17 breast tumor xenograft; assay: Tumor regression-regrowth assay, HBCx-17 xenograft; format: in vivo, human tumor in Swiss nude mice; settings: A/C 2/100 or Cap 540 mg/kg, x2 cycles
# Source text: as §1
# (§2) Chemotherapeutic drugs were administered by intraperitoneal route according to the following doses and schedules: adriamycin, 2 mg/kg, q3wk (Doxorubicin®, Teva Pharmaceuticals, France) and Cyclophosphamide, 100 mg/kg, q3wk (Endoxan®, Baxter, France). Irinotecan (Campto®, Pfizer Holding France), 50 mg/kg, q4dx4. Etoposide 12 mg/kg, qdx3. Ifosfamide 90 mg/kg, qdx3. bPARP inhibitor (AZD2281, Sequoia Research Products, UK) at 50 mg/kg (ip; qdx14). A second treatment cycle was performed with PARP inhibitor at 50 mg/kg (ip qdx5) during the nodule phase. Other pharmacological inhibitors are tested and administrated at the nodule phase: JAK1/2 Inhibitor (CP-690550) at 15 mg/kg (po qdx14), Epigallocatechin gallate (ECGC) (Sequoia Research Products, UK) at 30 mg/kg (ip qdx28), HDAC inhibitor (Trichostatine A), Retinoic acid at 50 mg/kg (ip qdx28) (Sigma-Aldrich, France). Breast tumor xenograft models were transplanted into 5-week old female Swiss nude mice, as described above, one tumor being transplanted into 5-10 recipients. When tumors reached a volume of 60-250 mm3, mice were individually identified and randomly assigned to the control or treated groups (12 to 20 mice per group). Tumor volume was evaluated by measuring two perpendicular diameters of the tumor, with a calliper, biweekly during the treatment period and once a week during the follow-up period. The formula TV (mm3)=[length (mm)×width (mm)2]/2 was used, where the length and the width were the longest and the shortest diameters of the tumor, respectively. All animals were weighted biweekly during the treatment period and the follow-up period. Mice were ethically sacrificed when the tumor volume reached 2000 mm3 Individual tumor growth delays (TGD) is calculated as the time in days required for individual tumors to reach 3- to 5-fold the initial median tumor volume. The tumor growth delay index (TGDI) is calculated as the median growth delay in the treated group divided by the median growth delay in the control group. The percentage ratio between the mean tumor volume of a treated group (T) and the mean tumor volume of the control group (C) is calculated.
# (§3) Tumors were collected from 5 independent mice at different time points: prior to treatment (=controls with volume<200 mm3); post-treatment residual tumors (=nodules with volume<32 mm3 until minimal palpation); recurrent tumors (=regrowth with volume>62.5 mm3) Tumors or nodules were processed for (1) FFPE (formalin-fixed paraffin-embedded) or for (2) snap frozen samples: samples were cut into 3-4 mm pieces (at least 3 fragments) and snap-frozen in liquid nitrogen, then transferred to −80° C. for storage. Samples were allocated for histology, microdissection and RNA analyses.
# (§4) Three categories of responders were defined based on the TGDI and T/C values.
# [5] = system: HBCx-39 breast tumor xenograft; assay: Tumor regression-regrowth assay, HBCx-39 xenograft; format: in vivo, human tumor in Swiss nude mice; settings: Cap 540 mg/kg, x2 cycles
# Source text: as §1, §2, §3, §4
# [6] = system: TC71 colorectal tumor xenograft; assay: Tumor regression-regrowth assay, TC71 xenograft; format: in vivo, human tumor in immunodeficient mice; settings: x1 cycle, mg/kg: Ox 10, Cap 540, I 50, B 5, Cet 5
# Source text: as §1, §2, §3, §4
# [7] = system: TC305 colorectal tumor xenograft; assay: Tumor regression-regrowth assay, TC305 xenograft; format: in vivo, human tumor in immunodeficient mice; settings: x1 cycle, mg/kg: Ox 10, Cap 540, I 50, B 5, Cet 5
# Source text: as §1, §2, §3, §4
# [8] = system: HBCx-24 breast tumor xenograft; assay: Tumor regression-regrowth assay, HBCx-24 xenograft; format: in vivo, human tumor in Swiss nude mice; settings: Doc 20 mg/kg, x2 cycles
# Source text: as §1, §2, §3, §4
# [9] = system: IC20DAN (a primary NSCLC tumor xenograft); assay: Tumor regression-regrowth assay, IC20DAN xenograft; format: in vivo, human tumor in immunodeficient mice; settings: Doc 20 mg/kg, x1 cycle
# Source text: as §1, §2, §3, §4
# [10] = system: HBCx-6 breast cancer xenograft; assay: Tumor regression-regrowth assay, HBCx-6 xenograft; format: in vivo, human tumor in Swiss nude mice; settings: HBCx-6 combination study; A/C 2/100 mg/kg; AZD2281 50 mg/kg i.p.
# Source text: as §1
# Chemotherapeutic drugs were administered by intraperitoneal route according to the following doses and schedules: adriamycin, 2 mg/kg, q3wk (Doxorubicin®, Teva Pharmaceuticals, France) and Cyclophosphamide, 100 mg/kg, q3wk (Endoxan®, Baxter, France). […] Tumor volume was evaluated by measuring two perpendicular diameters of the tumor, with a calliper, biweekly during the treatment period and once a week during the follow-up period. […] Mice were ethically sacrificed when the tumor volume reached 2000 mm3 Individual tumor growth delays (TGD) is calculated as the time in days required for individual tumors to reach 3- to 5-fold the initial median tumor volume. The tumor growth delay index (TGDI) is calculated as the median growth delay in the treated group divided by the median growth delay in the control group. […]
# [11] = system: ODA14 RAV glioma xenograft; assay: Tumor regression-regrowth assay, ODA14 RAV xenograft; format: in vivo, human tumor in immunodeficient mice; settings: TMZ 42 mg/kg, x1 cycle
# Source text: as §1, §2, §3, §4
# [12] = CDDP 2/12 or VP16/IFO 12/90 mg/kg
smiles,measurement,setting,value
"[NH2][Pt]([NH2])([Cl])[Cl] [CDDP, cisplatin]",% Tumor Relapse,[1]; CDDP 2/12 mg/kg,100%
same,% Nodules,[1]; [12],23%
same,Median Nodule Apparition Time,[1]; [12],13
"CCc1c2c(nc3ccc(OC(=O)N4CCC(N5CCCCC5)CC4)cc13)-c1cc3c(c(=O)n1C2)COC(=O)[C@]3(O)CC [I, Irinotecan]",% Nodules,[2],43%
same,% Tumor Relapse,[2],100%
same,Median Nodule Apparition Time,[2],26
same,Median Time of Relapse,[2],18
same,expression of IFN/Stat gene signature in residual nodules (qPCR),[3],gene expression was globally increased
"CCCCCOC(=O)Nc1nc(=O)n([C@@H]2O[C@H](C)[C@@H](O)[C@H]2O)cc1F [Cap, capecitabine]",% Nodules,[4],30%
same,% Tumor Relapse,[4],100%
same,Median Nodule Apparition Time,[4],50
same,Median Time of Relapse,[4],4
same,T/C % D21,[4],48%
same,T/C % D42,[4],12%
same,TGDI,[4],>2.81
same,median TGD × 5,[4],>64 days
same,% Nodules,[5],56%
same,% Tumor Relapse,[5],100%
same,Median Nodule Apparition Time,[5],17
same,Median Time of Relapse,[5],63
same,T/C % D21,[5],11%
same,TGDI,[5],>4.54
same,median TGD × 5,[5],>84 days
same,% Nodules,[6],100%
same,% Tumor Relapse,[6],100%
same,Median Nodule Apparition Time,[6],22
same,Median Time of Relapse,[6],36
same,T/C % D21,[6],5%
same,TGDI,[6],5.11
same,median TGD × 5,[6],66.48 days
same,% Nodules,[7],33%
same,% Tumor Relapse,[7],100%
same,Median Nodule Apparition Time,[7],7
same,Median Time of Relapse,[7],11
same,T/C % D21,[7],40%
same,TGDI,[7],1.74
same,median TGD × 5,[7],27.87 days
"CC(=O)O[C@@]12CO[C@@H]1C[C@H](O)[C@@]1(C)C(=O)[C@H](O)C3=C(C)[C@@H](OC(=O)[C@H](O)[C@@H](NC(=O)OC(C)(C)C)c4ccccc4)C[C@@](O)([C@@H](OC(=O)c4ccccc4)[C@H]21)C3(C)C [Doc, docetaxel]",% Nodules,[8],70%
same,% Tumor Relapse,[8],71.4%
same,Median Nodule Apparition Time,[8],10
same,Median Time of Relapse,[8],14
same,T/C % D21,[8],21%
same,TGDI,[8],2.39
same,median TGD × 5,[8],35.44 days
same,% Nodules,[9],60%
same,% Tumor Relapse,[9],100%
same,Median Nodule Apparition Time,[9],11
same,Median Time of Relapse,[9],9
same,TGDI,[9],>4.8
same,median TGD × 5,[9],>24 days
O=C(c1cc(Cc2n[nH]c(=O)c3ccccc23)ccc1F)N1CCN(C(=O)C2CC2)CC1 [AZD2281],anti-tumor activity,[10],significant anti-tumor activity
same,tumors showing complete tumor regression,[10],2 out of 7
Cn1nnc2c(C(N)=O)ncn2c1=O [TMZ],% Nodules,[11],100%
same,% Tumor Relapse,[11],100%
same,Median Nodule Apparition Time,[11],7
same,Median Time of Relapse,[11],21
same,TGDI,[11],6.66
same,median TGD × 5,[11],46.62 days
